Reference: patent publication US6639111B2, “5-thia-ω-(substituted phenyl)-prostaglandin E alcohols, process for preparing the alcohols and pharmaceutical preparations containing the same as the active ingredient” (Ono Pharmaceutical Co., Ltd., priority 2000, dated 2003)

Legend:
TNF-α = assay: Inhibitory action on producing TNF-α induced by LPS in rat; format: in vivo, SD-strain male rat; conditions: p.o. 30 minutes before LPS (10 μg/2 ml/kg i.v.); dose giving 50% inhibition of TNF-α in blood plasma 90 minutes after LPS
Description: LPS (10 μg/2 ml/kg) was administered into a tail vein of SD-strain male rat. Blood was collected from an abdominal large vein with heparin after 90 minutes from administration to prepare blood plasma. The amount of TNF-α in the blood plasma was determined by using ELISA Kit (Rat TNF-α Immunoassay kit, Biosource Co.). Each compound of the present invention was administered orally before 30 minutes from administration of LPS.

[1] = Converting into carboxylic acid in the living body: concentration in blood plasma of rat (LC/MS/MS); format: in vivo, SD-strain male rat; conditions: after Example 1(1) 1 mg/kg intravenous to rat, parent alcohol and the carboxylic acid formed from it
Description: The compound of Example 1(1) (1 mg/kg; alcohol compound) was administered into SD-strain male rat by intravenous route to determine each concentration of the said compound and corresponding carboxylic acid, i.e., (11α, 15α, 13E)-9-oxo-11,15-dihydroxy-16-(3-methoxymethylphenyl)-17,18,19,20-tetranor-5-thiaprost-13-enoic acid (corresponding carboxylic acid) in blood plasma. The test solution may be prepared from a physiological saline solution containing 0.3%ethanol and 0.1% POLYSORBATE 80. The concentration was determined by using liquid chromatograph mass spectrometer (LC/MS/MS).

Effective dose IC50 (TNF-α) [mg/kg] | AUC(0-inf) ([1]; male, SD, plasma, read-out: Concentration in blood plasma AUC0-∞) [ng·h/mL] | Concentration in blood plasma AUC0-∞ [1] [ng·h/mL] | SMILES
0.0574 | 462 ± 78 |  | COCc1cccc(C[C@H](O)/C=C/[C@H]2[C@H](O)CC(=O)[C@@H]2CCSCCCCO)c1 [Example 1(1), (11α, 15α, 13E)-9-oxo-11,15-Dihydroxy-16-(3-methoxymethylphenyl)-17,18,19,20-tetranor-5-thiaprost-13-en-1-alcohol]
 |  | 99 ± 26 | COCc1cccc(C[C@H](O)/C=C/[C@H]2[C@H](O)CC(=O)[C@@H]2CCSCCCC(=O)O)c1 [corresponding carboxylic acid, (11α, 15α, 13E)-9-oxo-11,15-dihydroxy-16-(3-methoxymethylphenyl)-17,18,19,20-tetranor-5-thiaprost-13-enoic acid]
0.117 |  |  | COCc1cccc(C[C@H](O)/C=C/[C@H]2CCC(=O)[C@@H]2CCSCCCCO)c1 [Example 1, (15α, 13E)-9-oxo-15-Hydroxy-16-(3-methoxymethylphenyl)-17,18,19,20-tetranor-5-thiaprost-13-en-1-alcohol]
